Test results as given in US20250026778A1 (TIUMBIO CO., LTD., priority 2021, published 2025).

The compounds below were run against T1, his-galectin-3 (Homo sapiens, UniProt P17931) (assay: TR-FRET assay (in vitro galectin-3 binding inhibitory activity test)). Details: Table 1; compound at 20 μM; 60 nM his-galectin-3, 15 nM biotin-ASF; read-out: % Inhibitory activity (at 20 μM).
T1 construct: purchased Abcam
T1 sequence (P17931 whole entry): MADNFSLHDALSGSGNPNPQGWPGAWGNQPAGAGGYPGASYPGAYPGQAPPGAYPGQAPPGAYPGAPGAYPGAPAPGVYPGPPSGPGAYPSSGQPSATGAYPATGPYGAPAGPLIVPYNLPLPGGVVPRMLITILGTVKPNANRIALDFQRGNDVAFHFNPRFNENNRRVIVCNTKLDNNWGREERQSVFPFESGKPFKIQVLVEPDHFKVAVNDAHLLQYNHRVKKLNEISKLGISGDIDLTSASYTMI
How it was run: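 Compound is premixed with his-galectin-3 (60 nM final), then biotin-ASF (15 nM), Tb anti-His antibody (2 nM) and streptavidin-d2 (20 nM) are added. After at least 3.5 hours at RT in HEPES/NaCl buffer with Tween 20 and BSA, TR-FRET is read at 615/665 nm. DMSO serves as the uninhibited control, ASF omission as background.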
`CC(=O)N[C@H]1C(O)O[C@H](CO)[C@@H](O[C@@H]2O[C@H](CO)[C@H](O)[C@H](O)[C@H]2O)[C@@H]1O` (stereo partly drawn) [LacNAc, N-acetyl-D-lactosamine, reference compound] was tested, and the inhibition at 20 µM was < 25%.

Same assay, conditions: Table 2; compound at 20 μM; 60 nM his-galectin-3, 15 nM biotin-ASF; read-out: % Inhibitory activity (at 20 μM)
With `O=C(N[C@@H]1CCO[C@]12O[C@H](CO)[C@H](O)[C@H](n1cc(-c3cc(F)c(F)c(F)c3)nn1)[C@H]2O)c1cccc2cnccc12` [Compound A247, N-((4R,5S,7R,8R,9S,10R)-8,10-dihydroxy-7-(hydroxymethyl)-9-(4-(3,4,5-trifluorophenyl)-1H-1,2,3-triazol-1-yl)-1,6-dioxaspiro[4.5]decan-4-yl)isoquinoline-5-carboxamide] the inhibition at 20 µM was > 75%. In the case of `O=C(N[C@@H]1CCO[C@]12O[C@H](CO)[C@H](O)[C@H](n1cc(-c3cc(F)c(F)c(F)c3)nn1)[C@H]2O)c1csc2cccc(Br)c12` [Compound A248, 4-bromo-N-((4R,5S,7R,8R,9S,10R)-8,10-dihydroxy-7-(hydroxymethyl)-9-(4-(3,4,5-trifluorophenyl)-1H-1,2,3-triazol-1-yl)-1,6-dioxaspiro[4.5]decan-4-yl)benzo[b]thiophene-3-carboxamide], the inhibition at 20 µM is reported as < 25%. `O=C(N[C@@H]1CCO[C@]12O[C@H](CO)[C@H](O)[C@H](n1cc(-c3cc(F)c(F)c(F)c3)nn1)[C@H]2O)c1csc2ccc(F)cc12` [Compound A249, N-((4R,5S,7R,8R,9S,10R)-8,10-dihydroxy-7-(hydroxymethyl)-9-(4-(3,4,5-trifluorophenyl)-1H-1,2,3-triazol-1-yl)-1,6-dioxaspiro[4.5]decan-4-yl)-5-fluorobenzo[b]thiophene-3-carboxamide] was tested, and the inhibition at 20 µM was > 75%. For `O=C(N[C@@H]1CCO[C@]12O[C@H](CO)[C@H](O)[C@H](n1cc(-c3cc(F)c(F)c(F)c3)nn1)[C@H]2O)c1coc2cccc(Br)c12` [Compound A250, 4-bromo-N-((4R,5S,7R,8R,9S,10R)-8,10-dihydroxy-7-(hydroxymethyl)-9-(4-(3,4,5-trifluorophenyl)-1H-1,2,3-triazol-1-yl)-1,6-dioxaspiro[4.5]decan-4-yl)benzofuran-3-carboxamide], the inhibition at 20 µM was > 75%. With `O=C(N[C@@H]1CCO[C@]12O[C@H](CO)[C@H](O)[C@H](n1cc(-c3cc(F)c(F)c(F)c3)nn1)[C@H]2O)c1csc2ccc(Br)cc12` [Compound A251, 5-bromo-N-((4R,5S,7R,8R,9S,10R)-8,10-dihydroxy-7-(hydroxymethyl)-9-(4-(3,4,5-trifluorophenyl)-1H-1,2,3-triazol-1-yl)-1,6-dioxaspiro[4.5]decan-4-yl)benzo[b]thiophene-3-carboxamide] the inhibition at 20 µM was > 75%. `O=C(N[C@@H]1CCO[C@]12O[C@H](CO)[C@H](O)[C@H](n1cc(-c3cc(F)c(F)c(F)c3)nn1)[C@H]2O)c1cc(=O)[nH]c2ccc(Br)cc12` [Compound A252, 6-bromo-N-((4R,5S,7R,8R,9S,10R)-8,10-dihydroxy-7-(hydroxymethyl)-9-(4-(3,4,5-trifluorophenyl)-1H-1,2,3-triazol-1-yl)-1,6-dioxaspiro[4.5]decan-4-yl)-2-oxo-1,2-dihydroquinoline-4-carboxamide] was tested, and the inhibition at 20 µM was > 75%. In the case of `O=C(N[C@@H]1CCO[C@]12O[C@H](CO)[C@H](O)[C@H](n1cc(-c3cc(F)c(F)c(F)c3)nn1)[C@H]2O)c1c[nH]c2cccc(Br)c12` [Compound A253, 4-bromo-N-((4R,5S,7R,8R,9S,10R)-8,10-dihydroxy-7-(hydroxymethyl)-9-(4-(3,4,5-trifluorophenyl)-1H-1,2,3-triazol-1-yl)-1,6-dioxaspiro[4.5]decan-4-yl)-1H-indole-3-carboxamide], the inhibition at 20 µM is reported as > 75%. In the case of `O=C(N[C@@H]1CCO[C@]12O[C@H](CO)[C@H](O)[C@H](n1cc(-c3cc(F)c(F)c(F)c3)nn1)[C@H]2O)c1cc(=O)[nH]c2ccccc12` [Compound A254, N-((4R,5S,7R,8R,9S,10R)-8,10-dihydroxy-7-(hydroxymethyl)-9-(4-(3,4,5-trifluorophenyl)-1H-1,2,3-triazol-1-yl)-1,6-dioxaspiro[4.5]decan-4-yl)-2-oxo-1,2-dihydroquinoline-4-carboxamide], the inhibition at 20 µM is reported as 50 to 75%. `O=C(N[C@@H]1CCO[C@]12O[C@H](CO)[C@H](O)[C@H](n1cc(-c3cc(F)c(F)c(F)c3)nn1)[C@H]2O)c1c[nH]c2cccc(F)c12` [Compound A255, N-((4R,5S,7R,8R,9S,10R)-8,10-dihydroxy-7-(hydroxymethyl)-9-(4-(3,4,5-trifluorophenyl)-1H-1,2,3-triazol-1-yl)-1,6-dioxaspiro[4.5]decan-4-yl)-4-fluoro-1H-indole-3-carboxamide] was tested, and the inhibition at 20 µM was > 75%. In the case of `O=C(N[C@@H]1CCO[C@]12O[C@H](CO)[C@H](O)[C@H](n1cc(-c3cc(F)c(F)c(F)c3)nn1)[C@H]2O)c1cccc2ccc(Cl)cc12` [Compound A256, 7-chloro-N-((4R,5S,7R,8R,9S,10R)-8,10-dihydroxy-7-(hydroxymethyl)-9-(4-(3,4,5-trifluorophenyl)-1H-1,2,3-triazol-1-yl)-1,6-dioxaspiro[4.5]decan-4-yl)-1-naphthamide], the inhibition at 20 µM is reported as > 75%. `CO[C@@H]1[C@@H](n2cc(-c3cc(F)c(F)c(F)c3)nn2)[C@@H](O)[C@@H](CO)O[C@@]12CCCO2` [Compound A257, (5S,7R,8R,9S,10R)-7-(hydroxymethyl)-10-methoxy-9-(4-(3,4,5-trifluorophenyl)-1H-1,2,3-triazol-1-yl)-1,6-dioxaspiro[4.5]decan-8-ol] gave an inhibition at 20 µM of 25 to 50%.

Same assay, conditions: Table 3, found values; compound at 20 μM; 60 nM his-galectin-3, 15 nM biotin-ASF; read-out: % Inhibitory activity (at 20 μM)
`O=C(N[C@@H]1CCO[C@]12O[C@H](CO)[C@H](O)[C@H](n1cc(-c3cc(F)c(F)c(F)c3)nn1)[C@H]2O)c1csc2ccc(F)cc12` [Compound A249, N-((4R,5S,7R,8R,9S,10R)-8,10-dihydroxy-7-(hydroxymethyl)-9-(4-(3,4,5-trifluorophenyl)-1H-1,2,3-triazol-1-yl)-1,6-dioxaspiro[4.5]decan-4-yl)-5-fluorobenzo[b]thiophene-3-carboxamide] was tested, and the inhibition at 20 µM was 89.9%. `CO[C@@H]1[C@@H](n2cc(-c3cc(F)c(F)c(F)c3)nn2)[C@@H](O)[C@@H](CO)O[C@@]12CCCO2` [Compound A257, (5S,7R,8R,9S,10R)-7-(hydroxymethyl)-10-methoxy-9-(4-(3,4,5-trifluorophenyl)-1H-1,2,3-triazol-1-yl)-1,6-dioxaspiro[4.5]decan-8-ol] was tested, and the inhibition at 20 µM was 39.2%.
